Assay results from patent US20080255169A1 (priority 2004, published 2008).
Like-named read-outs stand apart in the source and are kept apart here.

Target: α2β1 integrin (Homo sapiens, UniProt P05556+P17301)
Assay: Cell adhesion assay
Type: cell-based
Details: for Emax: read-out: Emax in cell adhesion assay
[1] = read-out: EC50 in cell adhesion assay

α2β1 integrin, sequence (P17301 30-1181): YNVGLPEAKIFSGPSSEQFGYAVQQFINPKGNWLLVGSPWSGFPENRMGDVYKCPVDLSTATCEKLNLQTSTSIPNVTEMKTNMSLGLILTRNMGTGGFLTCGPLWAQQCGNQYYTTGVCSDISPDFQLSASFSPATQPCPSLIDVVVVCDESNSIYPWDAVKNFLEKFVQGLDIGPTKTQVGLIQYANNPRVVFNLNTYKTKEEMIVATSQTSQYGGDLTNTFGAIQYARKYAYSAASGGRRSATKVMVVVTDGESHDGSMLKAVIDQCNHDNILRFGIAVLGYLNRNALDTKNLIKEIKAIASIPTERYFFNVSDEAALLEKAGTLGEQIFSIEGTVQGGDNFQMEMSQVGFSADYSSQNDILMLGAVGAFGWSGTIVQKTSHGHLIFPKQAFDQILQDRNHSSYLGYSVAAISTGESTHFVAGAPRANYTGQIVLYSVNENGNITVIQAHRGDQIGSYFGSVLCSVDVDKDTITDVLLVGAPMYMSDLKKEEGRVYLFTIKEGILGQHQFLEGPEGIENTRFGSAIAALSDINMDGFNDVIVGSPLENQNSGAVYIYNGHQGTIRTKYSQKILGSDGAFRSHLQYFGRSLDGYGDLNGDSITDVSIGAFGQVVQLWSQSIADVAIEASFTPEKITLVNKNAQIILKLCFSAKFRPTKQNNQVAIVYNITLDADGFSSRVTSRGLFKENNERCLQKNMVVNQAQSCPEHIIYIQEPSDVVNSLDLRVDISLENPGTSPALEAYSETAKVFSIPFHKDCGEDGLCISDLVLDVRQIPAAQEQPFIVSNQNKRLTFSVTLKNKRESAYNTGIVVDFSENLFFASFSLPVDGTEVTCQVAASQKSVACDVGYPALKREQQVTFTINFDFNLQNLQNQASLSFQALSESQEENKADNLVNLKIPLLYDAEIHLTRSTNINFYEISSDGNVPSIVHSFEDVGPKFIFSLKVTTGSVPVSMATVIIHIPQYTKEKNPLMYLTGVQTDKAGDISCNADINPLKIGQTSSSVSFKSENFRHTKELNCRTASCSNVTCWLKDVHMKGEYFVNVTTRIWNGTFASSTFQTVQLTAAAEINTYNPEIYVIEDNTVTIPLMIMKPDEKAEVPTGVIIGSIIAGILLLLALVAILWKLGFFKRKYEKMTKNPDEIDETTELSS
α2β1 integrin, sequence (P05556 21-798 partner): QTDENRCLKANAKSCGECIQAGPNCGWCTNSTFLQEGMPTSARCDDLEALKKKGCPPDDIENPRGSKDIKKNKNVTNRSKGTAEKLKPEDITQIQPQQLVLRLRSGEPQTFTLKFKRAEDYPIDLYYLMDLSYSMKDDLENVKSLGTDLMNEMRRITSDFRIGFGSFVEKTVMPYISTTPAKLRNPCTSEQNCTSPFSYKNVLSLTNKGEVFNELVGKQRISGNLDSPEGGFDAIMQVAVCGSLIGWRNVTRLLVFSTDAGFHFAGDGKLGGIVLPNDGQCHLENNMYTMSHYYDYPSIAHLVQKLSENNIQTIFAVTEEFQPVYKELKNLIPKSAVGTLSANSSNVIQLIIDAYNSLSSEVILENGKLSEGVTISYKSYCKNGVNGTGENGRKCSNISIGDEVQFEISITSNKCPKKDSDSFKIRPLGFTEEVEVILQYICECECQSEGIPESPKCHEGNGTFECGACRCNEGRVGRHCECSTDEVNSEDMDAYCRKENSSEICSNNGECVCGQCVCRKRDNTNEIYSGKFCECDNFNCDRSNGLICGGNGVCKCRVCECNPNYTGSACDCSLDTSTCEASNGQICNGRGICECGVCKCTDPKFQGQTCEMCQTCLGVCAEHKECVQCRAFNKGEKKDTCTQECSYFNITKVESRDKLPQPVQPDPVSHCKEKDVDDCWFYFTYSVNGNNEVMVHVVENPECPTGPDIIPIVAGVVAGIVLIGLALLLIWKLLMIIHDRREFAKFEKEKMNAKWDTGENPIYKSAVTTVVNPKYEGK

| SMILES | Emax (concentration not given) | EC50 [1] | further results |
| --- | --- | --- | --- |
| Cc1ccc(C)n1-c1ccc(NS(=O)(=O)c2ccc(Cl)cc2Cl)cc1 [Compound 213] | – | 25 µM | Emax at 50 µM: 71% |
| CN(C)c1ccc(NS(=O)(=O)c2cccc(-c3cccc(O)c3)c2)cc1 [Compound 205] | – | 20 µM | Emax at 50 µM: 84% |
| Cc1cc(C)nc(Nc2ccc(NS(=O)(=O)c3cccc(-c4ccc(F)cc4)c3)cc2)n1 [Compound 201] | – | 36 µM | Emax at 50 µM: 64% |
| CN(C)c1ccc(NS(=O)(=O)c2cc(-c3ccc(F)cc3)c(F)cc2F)cc1 [Compound 202] | 91% | 27 µM | – |
| Cc1nc2ccc(NS(=O)(=O)c3cccc(-c4ccc(F)cc4)c3)cc2o1 [Compound 187, 4′-fluoro-biphenyl-3-sulfonic acid (2-methyl-benzooxazol-6-yl)-amide] | 87% | 18 µM | – |
| CN(C)c1ccc(NS(=O)(=O)c2cc(Br)c(F)cc2F)cc1 [Compound 192, 5-bromo-N-[4-(dimethylamino)phenyl]-2,4-difluoro benzene sulfonamide] | 75% | 39 µM | – |
| CN(C)c1ccc(NS(=O)(=O)c2cccc(-c3cccc(F)c3)c2)cc1 [Compound 203] | 86% | 19 µM | – |
| Cc1nc2cc(NS(=O)(=O)c3cccc(-c4ccc(F)cc4)c3)ccc2o1 [Compound 190, 4′-fluoro-biphenyl-3-sulfonic acid (2-methyl-benzooxazol-5-yl)-amide] | 76% | 25 µM | – |
| Cc1cc(C)nc(N(C)c2ccc(NS(=O)(=O)c3ccc(Cl)cc3Cl)cc2)n1 [Compound 50, 2,4-dichloro-N-{4-[(4,6-dimethylpyrimidin-2-yl)(methyl)amino]phenyl}benzenesulphonamide] | 60% | 17 µM | – |
| O=S(=O)(Nc1ccc(-n2cnc(Cl)c2Cl)cc1)c1ccc2ccccc2c1 [Compound 171] | 79% | 20 µM | – |
| CN(C)c1ccc(NS(=O)(=O)c2cccc(-c3ccc(F)c(F)c3)c2)cc1 [Compound 263] | – | – | EC50 (EC50 in cell adhesion assay): 26 µM; Emax: 88% |
| Cc1nc2ccc(NS(=O)(=O)c3cccc(Br)c3)cc2s1 [Compound 195] | 60% | 49 µM | – |
| Cc1cc2cc(N(C)S(=O)(=O)c3cccc(Br)c3)ccc2[nH]1 [Compound 209] | – | 35 µM | Emax at 50 µM: 64% |
| O=S(=O)(Nc1ccc2ncsc2c1)c1cccc(-c2ccc(F)cc2)c1 [Compound 189, 4′-fluoro-biphenyl-3-sulfonic acid benzothiazol-6-ylamide] | 76% | – | – |
| O=S(=O)(Nc1ccc2[nH]ccc2c1)c1ccc(Cl)cc1Cl [Compound 134, 2,4-dichloro-N-(1H-indol-5-yl)-benzenesulfonamide] | 40% | 10 µM | – |
| COc1ccc(-c2cccc(S(=O)(=O)Nc3ccc(N(C)C)cc3)c2)cc1OC [Compound 142, [4-(3′,4′-dimethoxy-biphenyl-3-sulfonylamino)-phenyl]-dimethylammonium; chloride] | 77% | 20 µM | – |
| O=S(=O)(Nc1ccc(-n2cccc2)cc1)c1ccc(Cl)cc1Cl [Compound 163, 2,4-dichloro-N-(4-pyrrol-1-yl-phenyl)-benzenesulfonamide] | – | 32 µM | Emax at 50 µM: 66% |
| COc1cccc(-c2cccc(S(=O)(=O)Nc3ccc(N(C)C)cc3)c2)c1 [Compound 204] | 63% | ~25 µM | – |
| Cc1cc(C)nc(Nc2ccc(NS(=O)(=O)c3ccc(Cl)cc3Cl)cc2)n1 [Compound 182] | 77% | 25 µM | – |
| COc1cc(OC)nc(-c2ccc(NS(=O)(=O)c3ccc(Cl)cc3Cl)cc2)n1 [Compound 164, 2,4-dichloro-N-[4-(4,6-dimethoxy-pyrimidin-2-yl)-phenyl]-benzenesulfonamide] | – | 21 µM | Emax at 50 µM: 85% |
| Cc1nc2cc(NS(=O)(=O)c3cccc(-c4ccc(F)cc4)c3)ccc2s1 [Compound 188, 4′-fluoro-biphenyl-3-sulfonic acid (2-methyl-benzothiazol-5-yl)-amide] | 81% | 36 µM | – |
| O=S(=O)(Nc1ccc(Nc2nc(Cl)nc(Cl)c2Cl)cc1)c1ccc(Cl)cc1 [Compound 170] | – | 24 µM | Emax at 40 µM: 85% |
| Cc1cc2cc(NS(=O)(=O)c3cccc(Br)c3)ccc2[nH]1 [Compound 197, 3-bromo-N-(2-methyl-1H-indol-5-yl)-benzenesulfonamide] | 74% | – | – |
| CSc1nc2ccc(NS(=O)(=O)c3ccc(Cl)cc3Cl)cc2s1 [Compound 132] | 90% | 40 µM | – |
| O=S(=O)(Nc1ccc2c(c1)OCO2)c1cccc(-c2ccc(F)cc2)c1 [Compound 186, 4′-fluoro-biphenyl-3-sulfonic acid benzo[1,3]dioxol-5-yl-amide] | 91% | 19 µM | – |
| CC(C)(C)c1cc2cc(NS(=O)(=O)c3ccc(Cl)cc3)ccc2[nH]1 [Compound 173] | – | 35 µM | Emax at 40 µM: 59% |
| O=S(=O)(Nc1ccc2ncsc2c1)c1cccc(Br)c1 [Compound 139, N-benzolthiazol-6-yl-3-bromo-benzenesulfonamide] | 75% | 46 µM | – |

Continued, in another order:

| Emax (concentration not given) | EC50 [1] | SMILES | further results |
| --- | --- | --- | --- |
| 64% | 19 µM | Cc1cc2c(n1-c1ccc(NS(=O)(=O)c3ccc(Cl)c(Cl)c3)cc1)CC(C)(C)CC2=O [Compound 269] | – |
| 80% | 26 µM | O=S(=O)(Nc1ccc(-n2cccn2)cc1)c1cccc(-c2ccc(F)cc2)c1 [Compound 297] | – |
| 89% | 31 µM | COc1ccc(NS(=O)(=O)c2cccc(-c3ccc(F)cc3)c2)cc1 [Compound 250] | – |
| 45% | 44 µM | CN(C)c1ccc(NS(=O)(=O)c2cc(-c3ccc(F)cc3)c(-c3ccc(F)cc3)s2)cc1 [Compound 317] | – |
| – | 24 µM | CN(C)c1ccc(NS(=O)(=O)c2ccc(-c3ccc(F)cc3)s2)cc1 [Compound 306] | Emax at 50 µM: 67% |
| 50% | 32 µM | CC(C)(C)c1cc2cc(NS(=O)(=O)c3cccc(-c4ccc(F)cc4)c3)ccc2[nH]1 [Compound 291] | – |
| 85% | 20 µM | COc1cc(OC)nc(-c2ccc(NS(=O)(=O)c3cccc(-c4ccc(F)cc4)c3)cc2)n1 [Compound 235] | – |
| – | 7 µM | CN(C)c1ccc(N(C)S(=O)(=O)c2cccc(-c3ccc(F)cc3)c2)cc1 [Compound 282, 4′-fluoro-biphenyl-3-sulfonic acid (4-dimethylaminophenyl)-methylamide] | Emax at 50 µM: 59% |
| 56% | 29 µM | Cc1nc2cc(N(C)S(=O)(=O)c3cccc(-c4ccc(F)cc4)c3)ccc2o1 [Compound 295] | – |
| 63% | 23 µM | Cc1cc2c(n1-c1ccc(NS(=O)(=O)c3ccc(C(F)(F)F)cc3Cl)cc1)CC(C)(C)CC2=O [Compound 283, 2-chloro-4-trifluoromethyl-N-[4-(2,6,6-trimethyl-4-oxo-4,5,-6,7-tetrahydro-indol-1-yl)-phenyl]-benzenesulfonamide] | – |
| 66% | 40 µM | Cc1cc2c(n1-c1ccc(NS(=O)(=O)c3ccc(-c4cnco4)s3)cc1)CC(C)(C)CC2=O [Compound 258] | – |
| 85% | 35 µM | Cc1cc2cc(NS(=O)(=O)c3ccc4oc(=O)ccc4c3)ccc2[nH]1 [Compound 234] | – |
| – | 10 µM | CN(C)c1ccc(NS(=O)(=O)c2cc(-c3ccc(F)cc3)c(Cl)s2)cc1 [Compound 316, 5-chloro-4-(4-fluoro-phenyl)-thiophene-2-sulfonic acid (4-dimethylamino-phenyl)-amide] | Emax at 50 µM: 87% |
| – | > 30 µM | Cc1cc2cc(NS(=O)(=O)c3cccc(C(F)(F)F)c3)ccc2[nH]1 [Compound 230] | Emax at 50 µM: 76% |
| 82% | 13 µM | CN(C)c1ccc(N(C)S(=O)(=O)c2ccc(Cl)cc2Cl)cc1 [Compound 223, 2,4-dichloro-N-[4-(dimethylamino)phenyl]-N-methyl benzenesulfonamide] | – |
| 72% | 37 µM | COc1cc(OC)nc(-c2ccc(NS(=O)(=O)c3ccc(-c4cnco4)s3)cc2)n1 [Compound 286, 5-oxazol-5-yl-thiophene-2-sulfonic acid [4-(4,6-dimethoxypyrimidin-2-yl)-phenyl]-amide] | – |
| 55% | 6.3 µM | Cc1cc(F)ccc1-c1cccc(S(=O)(=O)N(C)c2ccc(N(C)C)cc2)c1 [Compound 321] | – |
| 70% | 18 µM | COc1cc(OC)nc(-c2ccc(NS(=O)(=O)c3ccc4ccccc4c3)cc2)n1 [Compound 266] | – |
| 50% | 45 µM | O=S(=O)(Nc1ccc(-n2ccnc2)cc1)c1cccc(-c2ccc(F)cc2)c1 [Compound 300] | – |
| 57% | 26 µM | CN(C)c1ccc(NS(=O)(=O)c2cccc(-c3cccc(C#N)c3)c2)cc1 [Compound 275] | – |
| 57% | 24 µM | Cc1cc(C)nc(N(C)c2ccc(N(C)S(=O)(=O)c3ccc(Cl)cc3Cl)cc2)n1 [Compound 302] | – |
| 45% | 10 µM | CN(c1ccc2c(c1)c1ccccc1n2C)S(=O)(=O)c1ccc(Cl)cc1Cl [Compound 320] | – |
| – | 17 µM | COc1cc(OC)nc(-c2ccc(NS(=O)(=O)c3ccc(Cl)c(Cl)c3)cc2)n1 [Compound 255] | Emax at 50 µM: 88% |
| – | 20 µM | Cc1cc(F)ccc1-c1ccc(S(=O)(=O)Nc2ccc(N(C)C)cc2)s1 [Compound 307] | Emax at 50 µM: 67% |
| 79% | 9.6 µM | O=S(=O)(Nc1ccc(-n2cnc(Cl)c2Cl)cc1)c1cccc(-c2ccc(F)cc2)c1 [Compound 299] | – |
| 69% | ~30 µM | Cn1ccc2ccc(NS(=O)(=O)c3cccc(-c4ccc(F)cc4)c3)cc21 [Compound 284, 4′-fluoro-biphenyl-3-sulfonic acid (1-methyl-1H-indol-6-yl)-amide] | – |
